Laboratory results reported in ChEMBL document CHEMBL4732115, “Discovery of novel cell-penetrating and tumor-targeting peptide-drug conjugate (PDC) for programmable delivery of paclitaxel and cancer treatment” (Eur J Med Chem, 2021).
Activity calls are given as the source filed them. No cut-off for these calls is given here. Peptide text beside a SMILES is read from it. * marks the point of attachment. X1 = CC(=O)O[C@H]1C(=O)[C@@]2(C)[C@H]([C@H](OC(=O)c3ccccc3)[C@]3(O)C[C@H](OC(=O)[C@H](OC(=O)OCCS*)[C@@H](NC(=O)c4ccccc4)c4ccccc4)C(C)=C1C3(C)C)[C@]1(OC(C)=O)CO[C@@H]1C[C@@H]2O; X2 = NCCCC[C@H](N*)C(=O)NC(=O)C1CCC(=O)N1

Legend:
[1] = Toxicity in human MCF7 cells xenografted in BALB/c nude mouse assessed as morphological changes in lung at 8 to 12 umol/kg, ip administered every two days for two weeks measured post last dose by H and E staining based histological analysis; format: organism-based; conditions: in vivo, 336 h, dose 8-12 µmol/kg, time 2 weeks
[2] = Drug conversion in heart of BALB/c nude mouse xenografted with human MCF7 cells assessed as PTX formation at 8 to 12 umol/kg, ip measured after 2 hrs by LC-MS analysis; format: ADME, organism-based; conditions: in vivo, dose 8-12 µmol/kg
[3] = Drug uptake in human MCF7 cells at 20 nM measured after 4 hrs in presence of MMP inhibitor ilomastat and LHRH by LC-MS analysis; format: ADME, cell-based; conditions: mcf7, 4 h, 0.02 µM
[4] = Neurotoxicity in BALB/c mouse assessed as change in histamine level at 12 umol/kg, ip administered every two days for 14 days measured post last dose by LC-MS analysis; format: toxicity, organism-based; conditions: in vivo, 336 h, dose 12 µmol/kg, time 14 day
[5] = Neurotoxicity in BALB/c mouse assessed as change in glutamine level at 12 umol/kg, ip administered every two days for 14 days measured post last dose by LC-MS analysis; format: toxicity, organism-based; conditions: in vivo, 336 h, dose 12 µmol/kg, time 14 day
[6] = Toxicity in human MCF7 cells xenografted in BALB/c nude mouse assessed as morphological changes in heart at 8 to 12 umol/kg, ip administered every two days for two weeks measured post last dose by H and E staining based histological analysis; format: organism-based; conditions: in vivo, 336 h, dose 8-12 µmol/kg, time 2 weeks
[7] = test system: MCF7; experiment: Antitumor activity against human MCF7 cells xenografted in BALB/c nude mouse assessed as reduction in tumor weight at 8 umol/kg, ip administered every two days for two weeks relative to control; format: functional; parameters: scale not given: the % may be the effect or the level left; conditions: dose 8 µmol/kg; time 2 weeks
[8] = Neurotoxicity in BALB/c mouse assessed as change in vanillylmandelic acid level at 12 umol/kg, ip administered every two days for 14 days measured post last dose by LC-MS analysis; format: toxicity, organism-based; conditions: in vivo, 336 h, dose 12 µmol/kg, time 14 day
[9] = Myelosuppression in BALB/c mouse assessed as change in granulocyte count at 12 umol/kg, ip administered every two days for 14 days measured post last dose; format: ADME, organism-based; conditions: in vivo, 336 h, dose 12 µmol/kg, time 14 day
[10] = Toxicity in human MCF7 cells xenografted in BALB/c nude mouse assessed as morphological changes in liver at 8 to 12 umol/kg, ip administered every two days for two weeks measured post last dose by H and E staining based histological analysis; format: organism-based; conditions: in vivo, 336 h, dose 8-12 µmol/kg, time 2 weeks
[11] = Drug conversion in serum of BALB/c nude mouse xenografted with human MCF7 cells assessed as PTX formation at 8 to 12 umol/kg, ip measured after 2 hrs by LC-MS analysis; format: ADME, organism-based; conditions: in vivo, dose 8-12 µmol/kg
[12] = test system: MCF7; experiment: Cytotoxicity against human MCF7 cells assessed as reduction in cell viability measured after 48 hrs by MTT assay; format: functional, cell-based; conditions: MCF7, 48 h
[13] = Drug conversion in kidney of BALB/c nude mouse xenografted with human MCF7 cells assessed as PTX formation at 8 to 12 umol/kg, ip measured after 2 hrs by LC-MS analysis; format: ADME, organism-based; conditions: in vivo, dose 8-12 µmol/kg
[14] = Drug uptake in human MCF7 cells at 20 nM measured after 4 hrs in presence of LHRH by LC-MS analysis; format: ADME, cell-based; conditions: mcf7, 4 h, 0.02 µM
[15] = test system: MCF7; experiment: Cytotoxicity against human MCF7 cells assessed as reduction in cell viability measured after 48 hrs in presence of LHRH by MTT assay; format: functional, cell-based
[16] = test system: HeLa; experiment: Cytotoxicity against human HeLa cells assessed as reduction in cell viability measured after 48 hrs by MTT assay; format: functional, cell-based
[17] = Neurotoxicity in BALB/c mouse assessed as change in acetylcholine level at 12 umol/kg, ip administered every two days for 14 days measured post last dose by LC-MS analysis; format: toxicity, organism-based; conditions: in vivo, 336 h, dose 12 µmol/kg, time 14 day
[18] = Neurotoxicity in BALB/c mouse assessed as increase in pain sensitivity at 12 umol/kg, ip administered every two days for 14 days by hot-plate test; format: toxicity, organism-based; conditions: in vivo, 336 h, dose 12 µmol/kg, time 14 day
[19] = Toxicity in human MCF7 cells xenografted in BALB/c nude mouse assessed as change in body weight at 8 to 12 umol/kg, ip administered every two days for two weeks; format: organism-based; conditions: in vivo, 336 h, dose 8-12 µmol/kg, time 2 weeks
[20] = Neurotoxicity in BALB/c mouse assessed as change in serotonin level at 12 umol/kg, ip administered every two days for 14 days measured post last dose by LC-MS analysis; format: toxicity, organism-based; conditions: in vivo, 336 h, dose 12 µmol/kg, time 14 day
[21] = Toxicity in human MCF7 cells xenografted in BALB/c nude mouse assessed as morphological changes in spleen at 8 to 12 umol/kg, ip administered every two days for two weeks measured post last dose by H and E staining based histological analysis; format: organism-based; conditions: in vivo, 336 h, dose 8-12 µmol/kg, time 2 weeks
[22] = Drug conversion in liver of BALB/c nude mouse xenografted with human MCF7 cells assessed as T2-PTX formation at 8 to 12 umol/kg, ip measured after 2 hrs by LC-MS analysis; format: ADME, organism-based; conditions: in vivo, dose 8-12 µmol/kg
[23] = Neurotoxicity in BALB/c mouse assessed as change in DOPAC level at 12 umol/kg, ip administered every two days for 14 days measured post last dose by LC-MS analysis; format: toxicity, organism-based; conditions: in vivo, 336 h, dose 12 µmol/kg, time 14 day
[24] = test system: MCF7; experiment: Cytotoxicity against human MCF7 cells assessed as reduction in cell viability measured after 48 hrs in presence of MMP inhibitor ilomastat and LHRH by MTT assay; format: functional, cell-based
[25] = Drug conversion in kidney of BALB/c nude mouse xenografted with human MCF7 cells assessed as T2-PTX formation at 8 to 12 umol/kg, ip measured after 2 hrs by LC-MS analysis; format: ADME, organism-based; conditions: in vivo, dose 8-12 µmol/kg
[26] = test system: A2780; experiment: Cytotoxicity against human A2780 cells assessed as reduction in cell viability measured after 48 hrs by MTT assay; format: functional, cell-based; conditions: A2780, 48 h
[27] = test system: HEK293; experiment: Cytotoxicity against HEK293 cells assessed as reduction in cell viability measured after 48 hrs by MTT assay; format: cell-based; conditions: Homo sapiens, HEK293, 48 h
[28] = Drug conversion in tumor of BALB/c nude mouse xenografted with human MCF7 cells assessed as PTX formation at 8 to 12 umol/kg, ip measured after 2 hrs by LC-MS analysis; format: ADME, organism-based, Neoplasm; conditions: in vivo, dose 8-12 µmol/kg

## CC(=O)O[C@H]1C(=O)[C@@]2(C)[C@H]([C@H](OC(=O)c3ccccc3)[C@]3(O)C[C@H](OC(=O)[C@H](OC(=O)OCCSSC[C@H](N)C(=O)N[C@@H](CC(C)C)C(=O)N[C@@H](CC(C)C)C(=O)N[C@@H](CCCCN)C(=O)N[C@@H](CCCNC(=N)N)C(=O)N[C@@H](Cc4ccccc4)C(=O)N[C@@H](Cc4ccccc4)C(=O)N[C@@H](CCCCN)C(=O)N[C@@H](CCCCN)C(=O)N[C@@H](Cc4ccccc4)C(=O)NCC(=O)N[C@@H](C)C(=O)N[C@@H](CC(C)C)C(=O)NCC(=O)N[C@@H](CC(C)C)C(=O)N4CCC[C@H]4C(=O)NCC(=O)N4CCC[C@H]4C(=O)N[C@@H](CCCNC(=N)N)C(=O)N[C@@H](CC(C)C)C(=O)NCC(=O)N[C@@H](Cc4ccc(O)cc4)C(=O)N[C@@H](CO)C(=O)N[C@@H](Cc4c[nH]c5ccccc45)C(=O)N[C@@H](CCCCN)C(=O)NC(=O)C4CCC(=O)N4)[C@@H](NC(=O)c4ccccc4)c4ccccc4)C(C)=C1C3(C)C)[C@]1(OC(C)=O)CO[C@@H]1C[C@@H]2O (stereo partly drawn) (H-C(X1)LLKRFFKKFGALGLPGPRLGYSW-X2)
[1]
  Activity: Non-Toxic
[2]
  Drug metabolism: Metabolite_Notdetected
[3]
  Drug uptake: Active
[4]
  Activity: Non-Toxic
[5]
  Activity: Non-Toxic
[6]
  Activity: Non-Toxic
[7]
  Activity: 67.1%
[8]
  Activity: Non-Toxic
[9]
  Activity: Non-Toxic
[10]
  Activity: Non-Toxic
[11]
  Drug metabolism: Metabolite_Notdetected
[12]
  IC50: 3.8 nM
[13]
  Drug metabolism: Metabolite_Notdetected
[14]
  Drug uptake: Active
[15]
  Activity: inactive
[16]
  IC50: 20.3 nM
[17]
  Activity: Non-Toxic
[18]
  Activity: Non-Toxic
[19]
  Activity: Non-Toxic
[20]
  Activity: Non-Toxic
[21]
  Activity: Non-Toxic
[22]
  Drug metabolism: Metabolite_Notdetected
[23]
  Activity: Non-Toxic
[24]
  Activity: inactive
[25]
  Drug metabolism: Metabolite_Notdetected
[26]
  IC50: 8.3 nM
[27]
  IC50: 66 nM
[28]
  Drug metabolism: Metabolite_Detected
